Experimental data published in patent publication EP4692094A1 (Beijing Konruns Pharmaceutical Co., Ltd., priority 2023, dated 2024).

What was measured:
hERG channel = target: T1, hERG channel (Homo sapiens, UniProt Q12809); assay: hERG channel assay (manual patch clamp); assay type: cell-based; conditions: HEK-293 cell line stably expressing the hERG channel, room temperature
T1 construct: expressed in transfected cells; host or cells: HEK-293
Method: 1.1 Test methods: This experiment adopted a manual patch clamp technology to detect the blocking effect of the compounds on electric current in the HEK-293 cell line stably expressing the hERG channel, and the risk of the compounds on the inhibitory effect on the cardiac hERG potassium channel was evaluated by fitting a concentration-effect relationship.
1.2 Experimental procedures: The patch clamp operation was performed as follows: Firstly, a capillary glass tube was drawn into a recording electrode with a microelectrode drawing instrument. An electrode filled with the intracellular fluid was mounted on the microelectrode holder. Under an inverted microscope, a microelectrode manipulator was used to immerse the electrode in the extracellular fluid, and the electrode resistance (Rpip) was recorded. The electrode was then slowly brought into contact with the cell surface, and negative pressure was applied to form a GΩ seal. At this time, fast capacitance compensation was performed, and the application of negative pressure was continued to break the cell membrane, forming a whole-cell recording mode. Finally, slow capacitance compensation was performed, and experimental parameters such as series resistance (Rs) were recorded. No current leakage compensation was provided. Administration was started when the hERG current of the whole-cell record was stable. Each drug concentration was maintained for about 5 min (or until the current was stable) for action before the next concentration was measured. Multiple concentrations were measured for each test compound. The coverslip with cells applied thereon was placed in the recording chamber under the inverted microscope. Gravity perfusion was used to flow the blank control extracellular fluid and the working solutions of the test compounds sequentially from low to high concentrations over the cells in the recording chamber. A peristaltic pump was used for liquid exchange during recording. For each cell, the current detected in the compound-free extracellular fluid was used as its own control group. The test was independently repeated three times for each concentration. All electrophysiological experiments were performed at room temperature.
Data processing: First, the tail current (Peak tail currentcompound) after the action of each drug concentration was standardized with the tail current of the blank control (Peak tail currentcontrol), and then the inhibition rate corresponding to each drug concentration was calculated ( 1−(Peak tail currentcompound)/(Peak tail currentcontrol) [formula] ). Subsequently, the mean, standard deviation (SD), and standard error (SE) were calculated for the inhibition rate corresponding to each concentration. The data were represented by Mean ± SE. IC50 value calculation of the compounds and dose-effect curve fitting were performed using the GraphPad Prism software. The data obtained are shown in Table 12: Table 12. hERG channel assay results

KAT6A = target: T2, KAT6A (Homo sapiens, UniProt Q92794); assay: Enzymatic activity assay for KAT6A acetyltransferase (TR-FRET, acetylation of histone substrate H3); assay type: biochemical
T2 construct: purchased active motife (Active Motif) 81223
T2 sequence (Q92794 whole entry): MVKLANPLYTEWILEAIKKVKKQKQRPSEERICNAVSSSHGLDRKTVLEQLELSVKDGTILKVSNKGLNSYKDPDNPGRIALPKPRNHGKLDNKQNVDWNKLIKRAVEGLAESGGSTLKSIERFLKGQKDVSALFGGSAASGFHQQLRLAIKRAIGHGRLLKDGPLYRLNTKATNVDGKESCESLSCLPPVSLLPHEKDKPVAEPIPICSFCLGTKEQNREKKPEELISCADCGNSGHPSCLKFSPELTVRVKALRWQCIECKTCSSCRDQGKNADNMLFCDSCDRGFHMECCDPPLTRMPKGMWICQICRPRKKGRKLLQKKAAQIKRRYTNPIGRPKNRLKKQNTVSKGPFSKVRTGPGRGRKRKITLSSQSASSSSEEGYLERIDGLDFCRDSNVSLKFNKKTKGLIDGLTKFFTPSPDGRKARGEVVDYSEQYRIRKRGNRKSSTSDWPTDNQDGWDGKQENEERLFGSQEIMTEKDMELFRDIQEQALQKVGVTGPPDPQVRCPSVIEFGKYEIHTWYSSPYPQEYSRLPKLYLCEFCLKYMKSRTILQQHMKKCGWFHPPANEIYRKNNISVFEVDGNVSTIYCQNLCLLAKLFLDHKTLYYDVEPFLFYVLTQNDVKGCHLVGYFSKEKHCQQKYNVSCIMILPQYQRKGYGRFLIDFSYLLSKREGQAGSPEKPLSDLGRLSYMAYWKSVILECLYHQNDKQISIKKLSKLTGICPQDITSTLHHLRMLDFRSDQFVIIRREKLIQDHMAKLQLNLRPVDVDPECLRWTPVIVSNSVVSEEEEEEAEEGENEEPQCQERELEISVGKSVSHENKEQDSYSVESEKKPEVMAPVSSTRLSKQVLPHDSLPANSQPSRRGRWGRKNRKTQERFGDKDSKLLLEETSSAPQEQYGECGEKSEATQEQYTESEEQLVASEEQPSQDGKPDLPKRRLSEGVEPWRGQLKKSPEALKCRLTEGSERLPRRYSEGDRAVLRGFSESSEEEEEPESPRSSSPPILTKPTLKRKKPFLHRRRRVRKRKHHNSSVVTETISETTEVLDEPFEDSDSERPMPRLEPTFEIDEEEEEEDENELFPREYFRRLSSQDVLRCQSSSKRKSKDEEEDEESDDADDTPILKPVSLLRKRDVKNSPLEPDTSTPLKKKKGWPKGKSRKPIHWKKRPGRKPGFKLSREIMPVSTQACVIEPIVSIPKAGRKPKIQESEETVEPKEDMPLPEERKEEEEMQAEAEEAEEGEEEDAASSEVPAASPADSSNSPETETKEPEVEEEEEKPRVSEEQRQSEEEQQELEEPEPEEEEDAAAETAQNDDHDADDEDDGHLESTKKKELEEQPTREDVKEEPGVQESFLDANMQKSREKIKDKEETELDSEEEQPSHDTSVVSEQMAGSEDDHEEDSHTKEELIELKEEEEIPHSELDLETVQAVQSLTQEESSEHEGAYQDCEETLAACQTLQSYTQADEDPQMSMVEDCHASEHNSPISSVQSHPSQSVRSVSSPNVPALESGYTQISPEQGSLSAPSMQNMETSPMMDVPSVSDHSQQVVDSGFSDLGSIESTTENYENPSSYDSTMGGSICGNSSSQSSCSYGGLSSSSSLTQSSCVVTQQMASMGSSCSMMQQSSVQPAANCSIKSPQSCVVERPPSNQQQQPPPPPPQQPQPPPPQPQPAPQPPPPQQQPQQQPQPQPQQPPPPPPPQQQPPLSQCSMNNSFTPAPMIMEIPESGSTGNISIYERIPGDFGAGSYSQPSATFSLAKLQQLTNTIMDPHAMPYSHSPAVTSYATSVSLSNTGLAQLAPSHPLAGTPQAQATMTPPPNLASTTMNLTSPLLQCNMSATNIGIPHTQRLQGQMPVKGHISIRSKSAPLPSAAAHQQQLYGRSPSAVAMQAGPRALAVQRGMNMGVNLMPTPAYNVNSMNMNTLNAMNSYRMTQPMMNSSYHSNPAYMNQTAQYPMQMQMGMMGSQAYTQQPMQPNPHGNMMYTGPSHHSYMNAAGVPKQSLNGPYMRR
Procedure, shortened: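 TR-FRET detection of biotinylated H3 acetylation by KAT6A with acetyl-CoA; compounds in 10-point 3-fold dilution (0.5% DMSO final) preincubated with enzyme 10 min at 25 °C, then 90 min reaction and 60 min Eu-antibody/ULight-SA detection at 25 °C. HTRF 665/615 ratio normalised to DMSO (0%) and top-dose control (100%); IC50 by nonlinear fit.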

[1] = In-vivo pharmacokinetic study in rats; parameters: species or system SD female rats; conditions: rat, plasma, po, 5 mg/kg, intragastric administration
Method: 1.1 Instrument: high-performance liquid chromatograph: SHIMADZU LC-30AD; mass spectrum: AB SCIEX mass spectrometer Triple Quad 5500; all measured data were calculated and processed using Microsoft Excel, and relevant pharmacokinetic parameters were calculated using WinNonlin software. The main obtained kinetic parameters are Tmax, T1/2, Cmax, AUC0-24 h, and AUCinf. […] Sample injection amount: 1 µL.
1.2 Animals: three SD female rats were used. The body weight range was 180-300 g. After purchase, the rats were bred in the experimental animal center for two days for later use. The rats were fasted 12 h before administration and 4 h after administration, and given ad libitum access to water during the assay. Blood samples were taken at predetermined time points after intragastric administration.
1.3 Vehicle: 0.5% HPMC (hydroxypropyl methylcellulose) + 0.4% Tween80 + 99.1% water. Preparation of intragastric administration solution: The compound was precisely weighed, the vehicle was added, and then the drug was completely dissolved by ultrasonication at room temperature for 5 min and prepared into a 0.5 mg/mL solution. After the intragastric administration, blood samples were taken at 0.083 h, 0.25 h, 0.5 h, 1.0 h, 2.0 h, 4.0 h, 7.0 h, and 24 h. The blood collection mode is as follows: 0.2 mL of the jugular vein blood was collected, EDTA-K2 was used as an anticoagulation agent, the collected blood sample was transferred into a microcentrifuge tube containing the anticoagulation agent, and the tube was centrifuged at 4 °C and 4000 g for 5 min to separate the plasma. All plasma samples collected were stored at -75±15 °C until analysis.
The compound was precisely weighed and prepared into a standard curve working solution and a quality control working solution at different concentrations. The blank plasma was added and prepared into a plasma standard curve and a quality control sample. LC/MS/MS analysis was performed after pretreatment using a protein precipitation method, and then the concentration of the compounds described above in the plasma was measured. All measured data were collected and processed by the relevant software, and pharmacokinetic parameters were calculated using Winnonlin software. Table 9. Pharmacokinetic parameters of some compounds in the examples in rats

T1 sequence (Q12809 whole entry): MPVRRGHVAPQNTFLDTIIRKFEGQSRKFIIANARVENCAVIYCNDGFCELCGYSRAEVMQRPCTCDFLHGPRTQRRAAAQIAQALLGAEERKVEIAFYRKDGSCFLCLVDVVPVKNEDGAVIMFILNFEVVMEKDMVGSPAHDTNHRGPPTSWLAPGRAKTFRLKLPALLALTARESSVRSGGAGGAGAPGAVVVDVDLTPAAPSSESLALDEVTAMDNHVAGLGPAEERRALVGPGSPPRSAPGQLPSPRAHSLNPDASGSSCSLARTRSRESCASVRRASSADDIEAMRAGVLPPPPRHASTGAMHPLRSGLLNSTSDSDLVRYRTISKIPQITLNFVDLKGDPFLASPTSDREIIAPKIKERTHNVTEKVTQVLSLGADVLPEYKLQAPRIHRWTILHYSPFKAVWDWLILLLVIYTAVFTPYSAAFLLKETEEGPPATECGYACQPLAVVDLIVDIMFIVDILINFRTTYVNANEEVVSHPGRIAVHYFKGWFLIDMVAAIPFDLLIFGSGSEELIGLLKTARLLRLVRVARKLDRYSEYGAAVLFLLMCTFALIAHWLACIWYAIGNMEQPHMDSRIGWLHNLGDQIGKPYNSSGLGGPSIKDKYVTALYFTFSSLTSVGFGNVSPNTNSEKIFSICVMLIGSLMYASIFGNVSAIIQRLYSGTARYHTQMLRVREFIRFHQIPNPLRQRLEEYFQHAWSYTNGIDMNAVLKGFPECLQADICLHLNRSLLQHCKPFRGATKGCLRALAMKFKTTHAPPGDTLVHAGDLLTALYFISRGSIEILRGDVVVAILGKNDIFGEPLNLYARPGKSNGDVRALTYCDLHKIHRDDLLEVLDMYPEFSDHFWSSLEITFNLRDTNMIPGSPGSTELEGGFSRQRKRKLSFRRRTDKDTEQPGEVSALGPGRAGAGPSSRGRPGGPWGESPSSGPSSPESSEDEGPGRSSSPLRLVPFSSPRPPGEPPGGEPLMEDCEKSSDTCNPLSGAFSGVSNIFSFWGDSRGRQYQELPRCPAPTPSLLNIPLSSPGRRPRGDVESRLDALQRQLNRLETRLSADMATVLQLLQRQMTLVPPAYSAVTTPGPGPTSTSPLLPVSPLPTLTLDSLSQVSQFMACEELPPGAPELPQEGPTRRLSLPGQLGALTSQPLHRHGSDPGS

Row | Structure (SMILES) | IC50 (hERG channel) [µM] | IC50 (KAT6A) [nM] | half-life ([1]; female, SD) [min] | AUC(0-inf) ([1]; female, SD) [ng·h/mL] | Cmax ([1]; female, SD) [ng/mL] | Tmax ([1]; female, SD) [h] | AUC(0-t) ([1]; female, SD, read-out: AUC0-24h) [ng·h/mL] | AUC(0-inf) [1] [ng·h/mL] | Cmax [1] [ng/mL] | Tmax [1] [h] | AUC(0-t) at 24 h ([1]; read-out: AUC0-24h) [µg·h/mL]
1 | COc1cc2c(cc1S(=O)(=O)Nc1noc3cc(Cn4cccn4)nc(OC)c13)CCCC2 [Example 2, N-(6-((1H-Pyrazol-1-yl)methyl)-4-methoxyisoxazolo[4,5-c]pyridin-3-yl)-3-methoxy-5,6,7,8-tetrahydronaphthalene-2-sulfonamide] | > 30 | 0.72 | ≤ 600 | 71500 | 4410 | 6 | 64800 |  |  |  | 
2 | COc1nc(Cn2cccn2)cc2onc(NS(=O)(=O)c3cccc4c3OCCO4)c12 [Example 4, N-(6-((1H-Pyrazol-1-yl)methyl)-4-methoxyisoxazolo[4,5-c]pyridin-3-yl)-2,3-dihydrobenzo[b][1,4]dioxine-5-sulfonamide] | > 30 | 1.51 |  | 12000 | 5960 | 0.25 | 11800 |  |  |  | 
3 | COc1nc(Cn2cccn2)cc2onc(NS(=O)(=O)c3cccc4ccoc34)c12 [Example 5, N-(6-((1H-Pyrazol-1-yl)methyl)-4-methoxyisoxazolo[4,5-c]pyridin-3-yl)benzofuran-7-sulfonamide] | > 30 | 4.52 | ≤ 600 | 19700 | 5960 | 0.25 | 18500 |  |  |  | 
4 | COc1ccc2c(c1S(=O)(=O)Nc1noc3cc(Cn4cccn4)nc(OC)c13)OCC2 [Example 9, N-(6-((1H-Pyrazol-1-yl)methyl)-4-methoxyisoxazolo[4,5-c]pyridin-3-yl)-6-methoxy-2,3-dihydrobenzofuran-7-sulfonamide] | > 30 | 0.92 |  | 215000 | 22500 | 1.83 | 215000 |  |  |  | 
5 | COc1ccc2ccoc2c1S(=O)(=O)Nc1noc2cc(Cn3cccn3)nc(OC)c12 [Example 10, N-(6-((1H-Pyrazol-1-yl)methyl)-4-methoxyisoxazolo[4,5-c]pyridin-3-yl)-6-methoxybenzofuran-7-sulfonamide] | > 30 | 0.38 |  | 74300 | 10500 | 0.5 | 72300 |  |  |  | 
6 | COc1cc2c(cc1S(=O)(=O)Nc1noc3cc(Cn4cccn4)nc(OC)c13)OCC2 [Example 59, N-(6-((1H-Pyrazol-1-yl)methyl)-4-methoxyisoxazolo[4,5-c]pyridin-3-yl)-5-methoxy-2,3-dihydrobenzofuran-6-sulfonamide] | > 30 | 0.95 |  | 167000 | 16500 | 1.17 | 166000 |  |  |  | 
7 | COc1cc2c(cc1S(=O)(=O)Nc1noc3cc(Cn4cccn4)nc(OC)c13)CCCO2 [Example 76, N-(6-((1H-Pyrazol-1-yl)methyl)-4-methoxyisoxazolo[4,5-c]pyridin-3-yl)-7-methoxy-3,4-dihydro-1H-benzopyran-6-sulfonamide] |  | 1.05 |  |  |  |  |  | 162000 | 14400 | 2.33 | 158
